According to patent US20100279969A1, “AZIDO PURINE NUCLEOSIDES FOR TREATMENT OF VIRAL INFECTIONS” (priority 2007, published 2010):

What was measured:
[1] = tested on: HIV-1AZT7 (M41L/D67N/K70R/T215F/K219Q); assay: Drug susceptibility assay against drug-resistant HIV, fold resistance; assay type: cell-based; conditions: EC50 for mutant HIV-1 divided by EC50 for WT HIV-1
Protocol: At 48 h post-infection, a cell lysis buffer and luminescent substrate (Gal-Screen; Tropix/Applied Biosystems) was added to each well, and relative light unit values were determined using a luminometer (ThermoLabSystems, Waltham, Mass.).
Drug susceptibility assays were performed using the single- and multiple-replication-cycle assays also described above.

HIV-1 RT containing TAMS = conditions: cited from earlier work
adenosine deaminase = assay type: in vitro ADME; conditions: 7 minutes with 0.002 units of enzyme; 50 μM, pH 7.4, 25° C.
Protocol: To determine the propensity for deamination of the APN nucleosides by adenosine deaminase, compounds were incubated with the commercially available purified enzyme, and the reaction was followed spectrophotometrically. Reaction conditions were 50 mM potassium phosphate, pH 7.4, with 50 μM APN nucleoside in 0.5 mL at 25° C. Reaction time was 7 minutes with 0.002 units of enzyme and 120 minutes with 0.2 units of enzyme. (The unit definition of adenosine deaminase is one unit will deaminate 1.0 μmol of adenosine to inosine per minute at pH 7.5 at 25° C.) Deoxyadenosine was the positive control which was 59% deaminated under the given conditions in 7 minutes with 0.002 units of enzyme. Deoxyguanosine was the negative control. Optical density was measured at 265 nm or 285 nm. The difference in optical density between the beginning and the end of the experiment was divided by the extinction coefficient then multiplied by the volume of the reaction to determine the number of mols of substrate transformed into product. Mols of product were divided by mols of substrate equivalent to a 100% complete reaction then multiplied by 100 to obtain percent deamination. The limit of detection was 0.001 optical density units.

HepG2 cells = HepG2 cells incubated with 10 μM; cited from earlier work

With `Cc1cn([C@H]2C[C@H](N=[N+]=[N-])[C@@H](CO)O2)c(=O)[nH]c1=O` [AZT, 3′-azido-3′-deoxythymidine] the fold resistance [1] was over 500 fold.

For `Cc1cn([C@H]2C[C@H](N=[N+]=[N-])[C@@H](COP(=O)(O)O)O2)c(=O)[nH]c1=O` [AZT-MP], the “lower sensitivity of excision to inhibition by the next-correct dNTP than other NRTI analogs that lack a 3′-azido group” value (HIV-1 RT containing TAMS) is given as over 50 fold.

Compound `Nc1ncnc2c1ncn2[C@H]1C[C@H](O)[C@@H](CO)O1` [Deoxyadenosine] has a percent deamination (adenosine deaminase) of 59%.

For `O=c1[nH]c(=O)n([C@@H]2O[C@H](CO)[C@@H](O)[C@@H]2F)cc1I` [fialuridine, 1,2′-deoxy-2′-fluoro-1-D-arabinofuranosly-5-iodo-uracil], the “mitochondrial morphology in electron micrographs” value (HepG2 cells) is listed as “enlarged mitochondria with morphological changes consistent with mitochondrial dysfunction”.
